Results as given in ChEMBL document CHEMBL2429764, “Synthesis and cytotoxic activity of novel hybrid compounds between 2-alkylbenzofuran and imidazole” (Med Chem Res, 2013).

Key:
Format in all cases: functional, cell-based
MCF7 = test: Cytotoxicity against human MCF7 cells after 48 hrs by MTT assay; conditions: MCF7, 48 h
SMMC-7721 = test: Cytotoxicity against human SMMC7721 cells after 48 hrs by MTT assay; conditions: SMMC-7721, 48 h
HL-60 = test: Cytotoxicity against human HL60 cells after 48 hrs by MTT assay; conditions: HL-60, 48 h
SW480 = test: Cytotoxicity against human SW480 cells after 48 hrs by MTT assay; conditions: SW480, 48 h
A549 = test: Cytotoxicity against human A549 cells after 48 hrs by MTT assay; conditions: A549, 48 h

Compound | IC50 (MCF7) | IC50 (SMMC-7721) | IC50 (HL-60) | IC50 (SW480) | IC50 (A549)
Cc1n(Cc2cc3ccccc3o2)cc[n+]1CC(=O)c1ccc(O)cc1 | > 40 µM | > 40 µM | > 40 µM | > 40 µM | > 40 µM
Cc1n(Cc2cc3ccccc3o2)cc[n+]1CC(=O)c1ccc(Br)cc1 | > 40 µM | > 40 µM | > 40 µM | > 40 µM | > 40 µM
Cc1n(Cc2cc3ccccc3o2)cc[n+]1CC(=O)c1ccc2ccccc2c1 | 1.09 µM | 3.5 µM | 1.04 µM | 1.03 µM | 4.97 µM
Cc1n(Cc2cc3ccccc3o2)cc[n+]1C(C(=O)c1ccccc1)c1ccccc1 (stereo not given) | 6.79 µM | 11.3 µM | 4.44 µM | 9.96 µM | 14.8 µM
Cc1n(Cc2cc3ccccc3o2)cc[n+]1Cc1ccccc1Br | 2.24 µM | 10.2 µM | 1.28 µM | 3.89 µM | 2.96 µM
C=CC[n+]1ccn(Cc2cc3ccccc3o2)c1C | > 40 µM | > 40 µM | > 40 µM | > 40 µM | > 40 µM
CCc1n(Cc2cc3ccccc3o2)cc[n+]1CC(=O)c1ccccc1 | > 40 µM | > 40 µM | > 40 µM | > 40 µM | > 40 µM
CCc1n(Cc2cc3ccccc3o2)cc[n+]1CC(=O)c1ccc(OC)cc1 | 3.05 µM | 8.43 µM | 0.4 µM | 1.02 µM | 1.13 µM
CCc1n(Cc2cc3ccccc3o2)cc[n+]1CC(=O)c1ccc(O)cc1 | > 40 µM | > 40 µM | > 40 µM | > 40 µM | > 40 µM
CCc1n(Cc2cc3ccccc3o2)cc[n+]1CC(=O)c1ccc(Br)cc1 | 4.47 µM | 7.51 µM | 1.87 µM | 1.34 µM | 25.7 µM
CCc1n(Cc2cc3ccccc3o2)cc[n+]1CC(=O)c1ccc2ccccc2c1 | 2.59 µM | 4.26 µM | 1.45 µM | 1.69 µM | 7.44 µM
CCc1n(Cc2cc3ccccc3o2)cc[n+]1C(C(=O)c1ccccc1)c1ccccc1 (stereo not given) | 3.3 µM | 6.16 µM | 2.25 µM | 7.15 µM | 10.3 µM
O=C(C[n+]1ccn(Cc2cc3ccccc3o2)c1)c1ccccc1 | > 40 µM | > 40 µM | > 40 µM | > 40 µM | > 40 µM
COc1ccc(C(=O)C[n+]2ccn(Cc3cc4ccccc4o3)c2)cc1 | > 40 µM | > 40 µM | > 40 µM | > 40 µM | > 40 µM
O=C(C[n+]1ccn(Cc2cc3ccccc3o2)c1)c1ccc(O)cc1 | > 40 µM | > 40 µM | > 40 µM | > 40 µM | > 40 µM
O=C(C[n+]1ccn(Cc2cc3ccccc3o2)c1)c1ccc(Br)cc1 | 18 µM | 14.3 µM | 10.3 µM | > 40 µM | 12.2 µM
O=C(C[n+]1ccn(Cc2cc3ccccc3o2)c1)c1ccc2ccccc2c1 | 12.7 µM | 8.08 µM | 6.27 µM | 17.1 µM | 9.95 µM

Compound | IC50 (MCF7) | IC50 (SMMC-7721) | IC50 (HL-60) | IC50 (SW480) | IC50 (A549)
Brc1ccccc1C[n+]1ccn(Cc2cc3ccccc3o2)c1 | > 40 µM | > 40 µM | > 40 µM | > 40 µM | > 40 µM
C=CC[n+]1ccn(Cc2cc3ccccc3o2)c1 | > 40 µM | > 40 µM | > 40 µM | > 40 µM | > 40 µM
CCCC[n+]1ccn(Cc2cc3ccccc3o2)c1 | > 40 µM | > 40 µM | > 40 µM | > 40 µM | > 40 µM
O=C(C[n+]1cn(Cc2cc3ccccc3o2)c2ccccc21)c1ccccc1 | > 40 µM | > 40 µM | > 40 µM | > 40 µM | > 40 µM
COc1ccc(C(=O)C[n+]2cn(Cc3cc4ccccc4o3)c3ccccc32)cc1 | 14.6 µM | 13.6 µM | 3.91 µM | 23.1 µM | 7.18 µM
O=C(C[n+]1cn(Cc2cc3ccccc3o2)c2ccccc21)c1ccc(O)cc1 | > 40 µM | > 40 µM | > 40 µM | > 40 µM | > 40 µM
O=C(C[n+]1cn(Cc2cc3ccccc3o2)c2ccccc21)c1ccc(Br)cc1 | 2.46 µM | 3.58 µM | 1.69 µM | 4.2 µM | 2.54 µM
O=C(C[n+]1cn(Cc2cc3ccccc3o2)c2ccccc21)c1ccc2ccccc2c1 | 3.72 µM | 6.44 µM | 3.62 µM | 17.1 µM | 6.73 µM
O=C(c1ccccc1)C(c1ccccc1)[n+]1cn(Cc2cc3ccccc3o2)c2ccccc21 (stereo not given) | 9.83 µM | 14.8 µM | 6.77 µM | 9.75 µM | 12.6 µM
Brc1ccccc1C[n+]1cn(Cc2cc3ccccc3o2)c2ccccc21 | 7.48 µM | 6.83 µM | 2.48 µM | 14.7 µM | 2.63 µM
CCCC[n+]1cn(Cc2cc3ccccc3o2)c2ccccc21 | > 40 µM | > 40 µM | > 40 µM | > 40 µM | > 40 µM
Cc1n(Cc2cc3ccccc3o2)cc[n+]1CC(=O)c1ccccc1 | > 40 µM | > 40 µM | > 40 µM | > 40 µM | > 40 µM
COc1ccc(C(=O)C[n+]2ccn(Cc3cc4ccccc4o3)c2C)cc1 | 1.44 µM | 11.6 µM | 0.78 µM | 0.28 µM | 0.37 µM
c1ccc2oc(Cn3ccnc3)cc2c1 | > 40 µM | > 40 µM | > 40 µM | > 40 µM | > 40 µM
c1ccc2oc(Cn3cnc4ccccc43)cc2c1 | > 40 µM | > 40 µM | > 40 µM | > 40 µM | > 40 µM
Cc1nccn1Cc1cc2ccccc2o1 | > 40 µM | > 40 µM | > 40 µM | > 40 µM | > 40 µM
CCc1nccn1Cc1cc2ccccc2o1 | > 40 µM | > 40 µM | > 40 µM | > 40 µM | > 40 µM
